{"source": "paper PMC7247818", "about": "“Demonstration of Binding Induced Structural Plasticity in a SH2 Domain” (Frontiers in Molecular Biosciences, 2020)", "key": {"[1]": {"target": "T1, N-SH2 domain of PI3K, L51A variant (Homo sapiens, UniProt P27986, L372A)", "T1 construct": "made in house", "T1 sequence (P27986 333-428 L372A)": "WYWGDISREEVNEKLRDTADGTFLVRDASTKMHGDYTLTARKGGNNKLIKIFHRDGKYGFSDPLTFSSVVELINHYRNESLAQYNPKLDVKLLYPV", "test": "Stopped-flow binding kinetics, N-SH2 L51A", "details": "10°C", "protocol": "(§1) N-SH2 wild-type and all the site-directed variants were expressed and purified as described previously ([Visconti et al., 2019]). All the mutants were obtained using a QuickChange Lightning Site-Directed Mutagenesis kit (Agilent technologies), accordingly to manufacturer instructions. Peptides with sequence TNSEDNpYVPMNPG mimicking wild-type Gab2 and TNSEDNpYVPANPG mimicking the M457A variant of Gab2 were purchased from GenScript Biotech Corporation.\n(§2) Binding kinetics experiments were performed using a single-mixing SX-18 stopped-flow instrument (Applied Photophysics); all binding experiments were conducted in 50 mM Hepes pH 7.4 300 mM NaCl at 10°C. Excitation was at 280 nm and emission was collected using a […] cut-off glass filter. Pseudo-first order binding experiments were performed mixing a constant concentration of dansylated Gab2_448–460 and Gab2_448–460 M457A (1 μM) vs. N-SH2 wt and its mutants at concentrations ranging from […]. For each N-SH2 concentration, usually 5 individual traces were averaged and in all cases the fluorescence time courses obtained was satisfactorily fitted by using a single exponential equation.\n(§3) One of the aims of this study is to depict the molecular details of the interaction between the N-SH2 domain of PI3K and Gab2. A powerful strategy to achieve this goal relies on perturbing the system by producing conservative site-directed variants while monitoring the effect of mutations on the association and dissociation rate constants between the interacting partners (kon and koff respectively). Thus, we designed and successfully produced 21 site-directed variants of the N-SH2 domain and challenged them vs. a peptide mimicking the region of Gab2 ranging from residue 448–460 (Gab2_448–460), containing the pY-X-X-M motif that is specifically recognized by the N-SH2 domain ([Waksman et al., 1992]; [Songyang et al., 1993]). The choise of mutations was designed in analogy to phi-value analysis methodology in protein folding studies ([Fersht and Sato, 2004]). […] To monitor binding by fluorescence, a dansyl group was added at the N-terminus of the peptide. The binding reaction was monitored by stopped-flow experiments following the change in FRET signal, taking advantage of the two Trp residues on the N-SH2 domain in positions 12 and 14 as fluorescence donor and the dansyl group on Gab2_448–460 as acceptor. The experiments were performed in pseudo-first order conditions with Gab2_448–460 at fixed concentration of 1 μM rapidly mixed vs. large excess of N-SH2 wt and its variants, ranging from 4 to 14 μM, in buffer Hepes 50 mM, NaCl 300 mM, pH 7.4, at 10°C.\n(§4) with kon being the slope of the line and koff the intercept with the y-axis. Since indirect calculation of koff obtained by extrapolation is associated with high experimental error, we performed displacement experiments to directly measure koff by challenging a pre-incubated complex of dansylated Gab2_448–460 and N-SH2 domain both at the concentration of 1 μM vs. a large excess of non-dansylated Gab2_448–460 (50 μM). Kinetic parameters extracted from data together with the calculated changes in activation and equilibrium free energies are reported in Table 1. Analysis of kinetic data highlights that T48S, L51A, and L59A variations cause a detectable decrease of the affinity of the domain for Gab2_448–460 of ∼10-fold, affecting both the kon and koff. […] Since L99 residue is part of the binding pocket, this dramatic effect on the binding affinity is expected.\n(§5) SH2 domains bind ligands with a phosphorylated tyrosine in their sequence. The N-SH2 domain of PI3K is known to recognize a specific consensus sequences that present a methionine in position +3 in respect to the phosphotyrosine (M457 in Gab2). […]"}, "[2]": {"target": "T2, N-SH2 domain of PI3K, V80A variant (Homo sapiens, UniProt P27986, V401A)", "T2 construct": "made in house", "T2 sequence (P27986 333-428 V401A)": "as the sequence (P27986 333-428 L372A) above, with A40L, V69A counted along it", "test": "Stopped-flow binding kinetics, N-SH2 V80A", "details": "10°C", "protocol": "as §1, §2, §3, §4, §5"}, "[3]": {"target": "T3, N-SH2 domain of PI3K, T48S variant (Homo sapiens, UniProt P27986, T369S)", "T3 construct": "made in house", "T3 sequence (P27986 333-428 T369S)": "as the sequence (P27986 333-428 L372A) above, with T37S, A40L counted along it", "test": "Stopped-flow binding kinetics, N-SH2 T48S", "details": "10°C", "protocol": "as §1, §2\n(§6) One of the aims of this study is to depict the molecular details of the interaction between the N-SH2 domain of PI3K and Gab2. […] To monitor binding by fluorescence, a dansyl group was added at the N-terminus of the peptide. The binding reaction was monitored by stopped-flow experiments following the change in FRET signal, taking advantage of the two Trp residues on the N-SH2 domain in positions 12 and 14 as fluorescence donor and the dansyl group on Gab2_448–460 as acceptor. […]\n(§7) with kon being the slope of the line and koff the intercept with the y-axis. […] Kinetic parameters extracted from data together with the calculated changes in activation and equilibrium free energies are reported in Table 1. […]"}, "[4]": {"target": "T4, N-SH2 domain of PI3K, T50S variant (Homo sapiens, UniProt P27986, T371S)", "T4 construct": "made in house", "T4 sequence (P27986 333-428 T371S)": "as the sequence (P27986 333-428 L372A) above, with T39S, A40L counted along it", "test": "Stopped-flow binding kinetics, N-SH2 T50S", "details": "10°C", "protocol": "as §1, §2, §3, §4, §5"}, "[5]": {"target": "T5, N-SH2 domain of PI3K, T29S variant (Homo sapiens, UniProt P27986, T350S)", "T5 construct": "made in house", "T5 sequence (P27986 333-428 T350S)": "as the sequence (P27986 333-428 L372A) above, with T18S, A40L counted along it", "test": "Stopped-flow binding kinetics, N-SH2 T29S", "details": "10°C", "protocol": "as §1, §2, §3, §4, §5"}, "[6]": {"target": "T6, N-SH2 domain of PI3K, L75A variant (Homo sapiens, UniProt P27986, L396A)", "T6 construct": "made in house", "T6 sequence (P27986 333-428 L396A)": "as the sequence (P27986 333-428 L372A) above, with A40L, L64A counted along it", "test": "Stopped-flow binding kinetics, N-SH2 L75A", "details": "10°C", "protocol": "as §1, §2, §3, §4, §5"}, "[7]": {"target": "T7, N-SH2 domain of PI3K, I60V variant (Homo sapiens, UniProt P27986, I381V)", "T7 construct": "made in house", "T7 sequence (P27986 333-428 I381V)": "as the sequence (P27986 333-428 L372A) above, with A40L, I49V counted along it", "test": "Stopped-flow binding kinetics, N-SH2 I60V", "details": "10°C", "protocol": "as §1, §2, §3, §4, §5"}, "[8]": {"target": "T8, N-SH2 domain of PI3K, T76S variant (Homo sapiens, UniProt P27986, T397S)", "T8 construct": "made in house", "T8 sequence (P27986 333-428 T397S)": "as the sequence (P27986 333-428 L372A) above, with A40L, T65S counted along it", "test": "Stopped-flow binding kinetics, N-SH2 T76S", "details": "10°C", "protocol": "as §1, §2, §3, §4, §5"}, "[9]": {"target": "T9, N-SH2 domain of PI3K, L35A variant (Homo sapiens, UniProt P27986, L356A)", "T9 construct": "made in house", "T9 sequence (P27986 333-428 L356A)": "as the sequence (P27986 333-428 L372A) above, with L24A, A40L counted along it", "test": "Stopped-flow binding kinetics, N-SH2 L35A", "details": "10°C", "protocol": "as §1, §2, §6, §7"}, "[10]": {"target": "T10, N-SH2 domain of PI3K, A30G variant (Homo sapiens, UniProt P27986, A351G)", "T10 construct": "made in house", "T10 sequence (P27986 333-428 A351G)": "as the sequence (P27986 333-428 L372A) above, with A19G, A40L counted along it", "test": "Stopped-flow binding kinetics, N-SH2 A30G", "details": "10°C", "protocol": "as §1, §2, §3, §4, §5"}, "[11]": {"target": "T11, N-SH2 domain of PI3K, I62V variant (Homo sapiens, UniProt P27986, I383V)", "T11 construct": "made in house", "T11 sequence (P27986 333-428 I383V)": "as the sequence (P27986 333-428 L372A) above, with A40L, I51V counted along it", "test": "Stopped-flow binding kinetics, N-SH2 I62V", "details": "displacement experiment, pH 7.4, 300 mM NaCl, 10°C", "protocol": "as §1, §2, §3, §4, §5"}, "[12]": {"details": "displacement experiment, pH 7.4, 300 mM NaCl"}, "[13]": {"details": "stopped-flow FRET, 1 μM dansylated peptide, 50 mM Hepes pH 7.4, 300 mM NaCl"}, "[14]": {"details": "stopped-flow kinetics, pH 7.4, 300 mM NaCl"}}, "note": "Where a SMILES comes first, the peptide text is derived from it.", "data": [{"smiles": "CSCC[C@H](NC(=O)[C@@H]1CCCN1C(=O)[C@@H](NC(=O)[C@H](Cc1ccc(OP(=O)(O)O)cc1)NC(=O)[C@H](CC(N)=O)NC(=O)[C@H](CC(=O)O)NC(=O)[C@H](CCC(=O)O)NC(=O)[C@H](CO)NC(=O)[C@H](CC(N)=O)NC(=O)[C@@H](N)[C@@H](C)O)C(C)C)C(=O)N[C@@H](CC(N)=O)C(=O)N1CCC[C@H]1C(=O)NCC(=O)O", "note": "[Gab2_448–460] (HELM PEPTIDE1{T.N.S.E.D.N.[O=C([C@H](Cc1ccc(OP(=O)(O)O)cc1)N[*:1])[*:2]].V.P.M.N.P.G}$$$$V2.0)", "values": [{"measurement": "koff", "setting": "[1]; [12]", "value": "18 ± 1", "unit": "s⁻¹"}, {"measurement": "kon", "setting": "[1]; [13]", "value": "5.6e+06 ± 1.1e+06", "unit": "M⁻¹ s⁻¹"}, {"measurement": "Kd", "setting": "[1]; [14]", "value": "3.2 ± 0.2", "unit": "µM"}, {"measurement": "koff", "setting": "[2]; [12]", "value": "4.4 ± 0.2", "unit": "s⁻¹"}, {"measurement": "kon", "setting": "[2]; [13]", "value": "1.6e+07 ± 1.2e+06", "unit": "M⁻¹ s⁻¹"}, {"measurement": "Kd", "setting": "[2]; [14]", "value": "0.3 ± 0.1", "unit": "µM"}, {"measurement": "koff", "setting": "[3]; [12]", "value": "23 ± 1", "unit": "s⁻¹"}, {"measurement": "kon", "setting": "[3]; [13]", "value": "6.4e+06 ± 500000", "unit": "M⁻¹ s⁻¹"}, {"measurement": "Kd", "setting": "[3]; [14]", "value": "3.7 ± 0.1", "unit": "µM"}, {"measurement": "koff", "setting": "[4]; [12]", "value": "9.3 ± 0.5", "unit": "s⁻¹"}, {"measurement": "kon", "setting": "[4]; [13]", "value": "1.56e+07 ± 800000", "unit": "M⁻¹ s⁻¹"}, {"measurement": "Kd", "setting": "[4]; [14]", "value": "0.6 ± 0.1", "unit": "µM"}, {"measurement": "koff", "setting": "[5]; [12]", "value": "4.3 ± 0.2", "unit": "s⁻¹"}, {"measurement": "kon", "setting": "[5]; [13]", "value": "1.75e+07 ± 500000", "unit": "M⁻¹ s⁻¹"}, {"measurement": "Kd", "setting": "[5]; [14]", "value": "0.3 ± 0.1", "unit": "µM"}, {"measurement": "koff", "setting": "[6]; [12]", "value": "6.1 ± 0.3", "unit": "s⁻¹"}, {"measurement": "kon", "setting": "[6]; [13]", "value": "8.1e+06 ± 1.1e+06", "unit": "M⁻¹ s⁻¹"}, {"measurement": "Kd", "setting": "[6]; [14]", "value": "0.8 ± 0.1", "unit": "µM"}, {"measurement": "koff", "setting": "[7]; [12]", "value": "6.9 ± 0.3", "unit": "s⁻¹"}, {"measurement": "kon", "setting": "[7]; [13]", "value": "9.1e+06 ± 1.1e+06", "unit": "M⁻¹ s⁻¹"}, {"measurement": "Kd", "setting": "[7]; [14]", "value": "0.8 ± 0.1", "unit": "µM"}, {"measurement": "koff", "setting": "[8]; [12]", "value": "5.3 ± 0.3", "unit": "s⁻¹"}, {"measurement": "kon", "setting": "[8]; [13]", "value": "1.69e+07 ± 1.3e+06", "unit": "M⁻¹ s⁻¹"}, {"measurement": "Kd", "setting": "[8]; [14]", "value": "0.3 ± 0.1", "unit": "µM"}, {"measurement": "koff", "setting": "[9]; [12]", "value": "6.7 ± 0.3", "unit": "s⁻¹"}, {"measurement": "kon", "setting": "[9]; [13]", "value": "7e+06 ± 600000", "unit": "M⁻¹ s⁻¹"}, {"measurement": "Kd", "setting": "[9]; [14]", "value": "1 ± 0.1", "unit": "µM"}, {"measurement": "koff", "setting": "[10]; [12]", "value": "3.7 ± 0.2", "unit": "s⁻¹"}, {"measurement": "kon", "setting": "[10]; [13]", "value": "2.92e+07 ± 2e+06", "unit": "M⁻¹ s⁻¹"}, {"measurement": "Kd", "setting": "[10]; [14]", "value": "0.1 ± 0.1", "unit": "µM"}, {"measurement": "koff", "setting": "[11]", "value": "4.5 ± 0.2", "unit": "s⁻¹"}]}]}
